In patent publication US12581252B2, “Substituted pyrrolo[3,4-b]pyridines as PI3K-α inhibitors” (Relay Therapeutics, Inc., priority 2020, dated 2026):

Target: H1047R PIK3CA enzyme (Homo sapiens, UniProt P42336, H1047R)
Test: ADP-Glo Biochemical PIK3CA Kinase Assay

Sequence of H1047R PIK3CA enzyme (P42336 whole entry H1047R): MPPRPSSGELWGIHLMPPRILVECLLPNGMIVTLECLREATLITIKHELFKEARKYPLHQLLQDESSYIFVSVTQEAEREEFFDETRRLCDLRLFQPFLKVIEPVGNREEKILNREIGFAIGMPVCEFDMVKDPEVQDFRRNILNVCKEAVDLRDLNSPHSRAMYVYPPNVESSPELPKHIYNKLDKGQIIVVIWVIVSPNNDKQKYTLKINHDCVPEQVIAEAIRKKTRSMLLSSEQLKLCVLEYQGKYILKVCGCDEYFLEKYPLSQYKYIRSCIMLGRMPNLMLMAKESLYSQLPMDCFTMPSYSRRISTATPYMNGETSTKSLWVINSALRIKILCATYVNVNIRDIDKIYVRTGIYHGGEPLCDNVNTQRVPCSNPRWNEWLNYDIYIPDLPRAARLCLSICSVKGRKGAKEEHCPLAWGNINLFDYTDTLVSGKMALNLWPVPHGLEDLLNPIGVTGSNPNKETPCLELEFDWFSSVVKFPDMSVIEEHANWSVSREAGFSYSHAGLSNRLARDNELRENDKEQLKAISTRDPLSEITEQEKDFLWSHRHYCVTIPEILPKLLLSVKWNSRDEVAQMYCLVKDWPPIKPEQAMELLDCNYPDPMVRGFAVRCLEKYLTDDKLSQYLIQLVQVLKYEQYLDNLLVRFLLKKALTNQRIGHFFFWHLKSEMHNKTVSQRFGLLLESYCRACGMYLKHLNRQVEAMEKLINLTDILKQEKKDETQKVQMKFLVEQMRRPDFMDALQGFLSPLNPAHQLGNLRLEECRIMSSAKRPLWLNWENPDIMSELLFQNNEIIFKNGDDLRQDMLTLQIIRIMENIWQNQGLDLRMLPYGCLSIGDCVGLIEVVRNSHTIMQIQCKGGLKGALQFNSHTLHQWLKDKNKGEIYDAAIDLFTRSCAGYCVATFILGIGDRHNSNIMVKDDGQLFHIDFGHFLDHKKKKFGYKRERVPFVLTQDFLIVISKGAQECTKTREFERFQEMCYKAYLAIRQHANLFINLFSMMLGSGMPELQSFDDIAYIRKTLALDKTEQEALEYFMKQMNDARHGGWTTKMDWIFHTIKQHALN
Sequence of H1047R PIK3CA enzyme (P27986 whole entry partner): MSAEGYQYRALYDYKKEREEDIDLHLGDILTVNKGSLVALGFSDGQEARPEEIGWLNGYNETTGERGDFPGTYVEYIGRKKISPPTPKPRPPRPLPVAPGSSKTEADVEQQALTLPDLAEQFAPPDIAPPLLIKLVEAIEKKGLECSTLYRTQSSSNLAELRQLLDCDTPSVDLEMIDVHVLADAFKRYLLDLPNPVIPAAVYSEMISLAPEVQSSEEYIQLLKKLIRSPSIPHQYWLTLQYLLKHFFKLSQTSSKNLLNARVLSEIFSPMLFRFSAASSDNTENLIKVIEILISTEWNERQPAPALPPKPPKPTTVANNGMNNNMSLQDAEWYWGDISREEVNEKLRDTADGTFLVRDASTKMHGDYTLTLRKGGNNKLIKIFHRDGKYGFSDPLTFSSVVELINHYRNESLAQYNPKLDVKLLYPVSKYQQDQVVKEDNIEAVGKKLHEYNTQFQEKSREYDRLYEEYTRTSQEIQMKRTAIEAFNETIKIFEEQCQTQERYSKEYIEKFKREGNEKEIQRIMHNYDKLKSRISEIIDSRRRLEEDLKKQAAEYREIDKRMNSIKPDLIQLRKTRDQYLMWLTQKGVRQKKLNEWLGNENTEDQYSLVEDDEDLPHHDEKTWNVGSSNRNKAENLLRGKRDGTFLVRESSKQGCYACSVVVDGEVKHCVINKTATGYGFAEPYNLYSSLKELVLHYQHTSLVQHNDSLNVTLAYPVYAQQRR

| Structure (SMILES) | IC50 |
| --- | --- |
| Nc1ccc(Cl)c(C2NC(=O)c3cccc(NC(=O)c4cc(F)cc(C(F)(F)F)c4)c32)c1 (stereo not shown) [Compound I-429] | 1 to 10 µM |
| O=C1NC(c2cc(F)ccc2Cl)c2c(NC(=O)N3CCC(C(F)(F)F)CC3)cc(Br)cc21 (stereo not shown) [Compound I-430] | 1 to 10 µM |
| O=C(Nc1cccc2c1C(c1cccc3ccccc13)NC2=O)c1cc(F)cc(C(F)(F)F)c1 (stereo not shown) [Compound I-431] | 1 to 10 µM |
| Cc1ccccc1C1NC(=O)c2cccc(NC(=O)N3CCCCC3)c21 (stereo not shown) [Compound I-433] | 10 to 100 µM |
| Cc1ccccc1C1NC(=O)c2c(CCO)ccc(NC(=O)c3nsc4ccccc34)c21 (stereo not shown) [Compound I-434] | ≤ 0.1 µM |
| Cc1ccccc1C1NC(=O)c2cccc(NC(=O)c3cccc(C(F)(F)F)c3)c21 (stereo not shown) [Compound I-435] | 1 to 10 µM |
| COc1cc(C(=O)Nc2cc(Br)cc3c2C(c2cc(F)ccc2C(F)F)NC3=O)cc(F)c1F (stereo not shown) [Compound I-436] | 0.1 to 0.5 µM |
| CC(C)(O)Cc1cc(NC(=O)c2cc(F)cc(C(F)(F)F)c2)c2c(c1)C(=O)NC2c1cc(F)ccc1Cl (stereo not shown) [Compound I-437] | ≤ 0.1 µM |
| CNC(=O)Cc1cc(NC(=O)c2cc(F)cc(C(F)(F)F)c2)c2c(c1)C(=O)NC2c1cc(F)ccc1Cl (stereo not shown) [Compound I-438] | ≤ 0.1 µM |
| CC(C)(O)c1cc(NC(=O)c2cc(F)cc(C(F)(F)F)c2)c2c(c1)C(=O)NC2c1ccccc1Cl (stereo not shown) [Compound I-439] | 0.1 to 0.5 µM |
| O=C(Nc1cnc(NC2COC2)c2c1C(c1cc(F)ccc1Cl)NC2=O)c1cc(F)cc(C(F)(F)F)c1 (stereo not shown) [Compound I-440] | 1 to 10 µM |
| O=C(Nc1cc(N2CCC2)nc2c1C(c1cc(F)ccc1Cl)NC2=O)c1cc(F)cc(C(F)(F)F)c1 (stereo not shown) [Compound I-441] | ≤ 0.1 µM |
| CC(C)CC1NC(=O)c2cccc(NC(=O)c3cc(F)cc(C(F)(F)F)c3)c21 (stereo not shown) [Compound I-442] | 1 to 10 µM |
| N#CC1CN(c2cc(NC(=O)c3cc(F)cc(C(F)(F)F)c3)c3c(n2)C(=O)NC3c2cc(F)ccc2Cl)C1 (stereo not shown) [Compound I-443] | ≤ 0.1 µM |
| O=C(Nc1cc(CNCc2ccccc2)nc2c1C(c1cc(F)ccc1Cl)NC2=O)c1cc(F)cc(C(F)(F)F)c1 (stereo not shown) [Compound I-444] | 0.1 to 0.5 µM |
| Cc1ccccc1C1NC(=O)c2cccc(NC(=O)c3nsc4ccc(-c5cnn(C)c5)cc34)c21 (stereo not shown) [Compound I-445] | 1 to 10 µM |
| O=C(Nc1cccc2c1C(c1cc(Br)ccc1Cl)NC2=O)c1cc(F)cc(C(F)(F)F)c1 (stereo not shown) [Compound I-446] | ≤ 0.1 µM |
| O=C(Nc1cccc2c1C(c1cc(F)ccc1Cl)NC2=O)c1cc(Br)cc(C(F)(F)F)c1 (stereo not shown) [Compound I-447] | 1 to 10 µM |
| O=C(Nc1cccc2c1C(c1cc(F)ccc1Cl)NC2=O)c1cc(O)cc(C(F)(F)F)c1 (stereo not shown) [Compound I-448] | 0.5 to 1 µM |
| Nc1cc(C(=O)Nc2cccc3c2C(c2cc(F)ccc2Cl)NC3=O)cc(C(F)(F)F)c1 (stereo not shown) [Compound I-449] | 1 to 10 µM |
| O=C(Nc1cccc2c1C(c1cc(F)ccc1Cl)NC2=O)c1cc(B(O)O)cc(C(F)(F)F)c1 (stereo not shown) [Compound I-450] | 1 to 10 µM |
| Cc1ccccc1C1NC(=O)c2cccc(NC(=O)c3ccsn3)c21 (stereo not shown) [Compound I-451] | 10 to 100 µM |
| Cc1ccccc1C1NC(=O)c2cccc(NC(=O)c3ncsc3Br)c21 (stereo not shown) [Compound I-452] | 1 to 10 µM |
| Cc1ccccc1C1NC(=O)c2cccc(NC(=O)c3cc(Br)sn3)c21 (stereo not shown) [Compound I-453] | 10 to 100 µM |
| Cc1ccccc1C1NC(=O)c2cccc(NC(=O)c3cc(F)cc4cc[nH]c34)c21 (stereo not shown) [Compound I-454] | 0.1 to 0.5 µM |

| Structure (SMILES) | IC50 |
| --- | --- |
| O=C(Nc1cc(-c2cccnc2)nc2c1C(c1cc(F)ccc1Cl)NC2=O)c1cc(F)cc(Cl)c1 (stereo not shown) [Compound I-455] | 0.1 to 0.5 µM |
| Cn1cc(-c2cc(NC(=O)c3cc(F)cc(Cl)c3)c3c(n2)C(=O)NC3c2cc(F)ccc2Cl)ccc1=O (stereo not shown) [Compound I-456] | ≤ 0.1 µM |
| Cc1ncc(-c2cc(NC(=O)c3cc(F)cc(Cl)c3)c3c(n2)C(=O)NC3c2cc(F)ccc2Cl)s1 (stereo not shown) [Compound I-457] | ≤ 0.1 µM |
| O=C(Nc1cc(-c2ccncc2)nc2c1C(c1cc(F)ccc1Cl)NC2=O)c1cc(F)cc(Cl)c1 (stereo not shown) [Compound I-458] | 0.1 to 0.5 µM |
| Cc1nc(C)c(-c2cc(NC(=O)c3cc(F)cc(Cl)c3)c3c(n2)C(=O)NC3c2cc(F)ccc2Cl)s1 (stereo not shown) [Compound I-459] | ≤ 0.1 µM |
| Cc1ncc(-c2cc(NC(=O)c3cc(F)cc(Cl)c3)c3c(n2)C(=O)NC3c2cc(F)ccc2Cl)cn1 (stereo not shown) [Compound I-460] | 0.1 to 0.5 µM |
| CC(=O)Nc1cc(NC(=O)c2cc(F)cc(C(F)(F)F)c2)c2c(c1)C(=O)N[C@H]2c1cc(F)ccc1Cl [Compound I-461] | ≤ 0.1 µM |
| CC(=O)Nc1cc(NC(=O)c2cc(F)cc(C(F)(F)F)c2)c2c(c1)C(=O)N[C@@H]2c1cc(F)ccc1Cl [Compound I-462] | 1 to 10 µM |
| Cc1ccccc1C1NC(=O)c2cccc(NC(=O)c3nscc3Br)c21 (stereo not shown) [Compound I-463] | 1 to 10 µM |
| Cc1ccccc1C(=O)Nc1cc(Br)cc2c1C(c1cc(F)ccc1Cl)NC2=O (stereo not shown) [Compound I-464] | 10 to 100 µM |
| COc1ccc(C(=O)Nc2cc(Br)cc3c2C(c2cc(F)ccc2Cl)NC3=O)cc1 (stereo not shown) [Compound I-465] | 10 to 100 µM |
| O=C(Nc1cc(Br)cc2c1C(c1cc(F)ccc1Cl)NC2=O)c1ccccc1F (stereo not shown) [Compound I-466] | 10 to 100 µM |
| O=C(Nc1cc(NC(=O)C(F)F)cc2c1C(c1cc(F)ccc1Cl)NC2=O)c1cc(F)cc(C(F)(F)F)c1 (stereo not shown) [Compound I-467] | ≤ 0.1 µM |
| O=C(Nc1cc(Br)cc2c1C(c1cc(F)ccc1Cl)NC2=O)c1cc(F)cc(F)c1 (stereo not shown) [Compound I-468] | 0.1 to 0.5 µM |
| COc1cccc(C(=O)Nc2cc(Br)cc3c2C(c2cc(F)ccc2Cl)NC3=O)c1 (stereo not shown) [Compound I-469] | 10 to 100 µM |
| O=C(Nc1cc(Br)cc2c1C(c1cc(F)ccc1Cl)NC2=O)c1ccccc1 (stereo not shown) [Compound I-470] | 10 to 100 µM |
| COc1ccccc1C(=O)Nc1cc(Br)cc2c1C(c1cc(F)ccc1Cl)NC2=O (stereo not shown) [Compound I-471] | 10 to 100 µM |
| O=C(Nc1cccc2c1C(=O)NS2(=O)=O)c1cc(F)cc(C(F)(F)F)c1 [Compound I-472] | 10 to 100 µM |
| Cc1ccccc1C1NC(=O)c2cc(CO)cc(NC(=O)c3cc(F)cc(C(F)(F)F)c3)c21 (stereo not shown) [Compound I-473] | ≤ 0.1 µM |
| COc1cc(C(=O)Nc2cc(N)cc3c2C(c2cc(F)ccc2C(F)F)NC3=O)cc(F)c1N (stereo not shown) [Compound I-474] | 10 to 100 µM |
| Cc1ccccc1C1NC(=O)c2cccc(NC(=O)c3cccc(F)c3)c21 (stereo not shown) [Compound I-475] | 1 to 10 µM |
| CN(C)C(=O)Cc1cc(NC(=O)c2cc(F)cc(C(F)(F)F)c2)c2c(c1)C(=O)NC2c1cc(F)ccc1Cl (stereo not shown) [Compound I-476] | ≤ 0.1 µM |
| O=C(Nc1cc(Br)cc2c1C(c1cc(F)ccc1Cl)NC2=O)c1ccccc1Cl (stereo not shown) [Compound I-477] | 10 to 100 µM |
| Cc1ccccc1C1NC(=O)c2cccc(-c3cc4c(F)cc(F)cc4[nH]3)c21 (stereo not shown) [Compound I-479] | 1 to 10 µM |
| NCc1ncc(NC(=O)c2cc(F)cc(C(F)(F)F)c2)c2c1C(=O)NC2c1cc(F)ccc1Cl (stereo not shown) [Compound I-480] | 0.5 to 1 µM |

| Structure (SMILES) | IC50 |
| --- | --- |
| O=C1NC(c2cc(F)ccc2Cl)c2c(NC(=O)N3CCCC3)cc(Br)cc21 (stereo not shown) [Compound I-481] | 10 to 100 µM |
| O=C1NC(c2cc(F)ccc2Cl)c2c(NC(=O)N3CCC(F)(F)C3)cc(Br)cc21 (stereo not shown) [Compound I-482] | 1 to 10 µM |
| O=C(Nc1cc(OS(=O)(=O)F)cc2c1C(c1cc(F)ccc1Cl)NC2=O)c1cc(F)cc(C(F)(F)F)c1 (stereo not shown) [Compound I-483] | ≤ 0.1 µM |
| O=C(Nc1cc(C(O)(O)C(F)(F)F)cc2c1C(c1cc(F)ccc1Cl)NC2=O)c1cc(F)cc(C(F)(F)F)c1 (stereo not shown) [Compound I-484] | 0.1 to 0.5 µM |
| N#Cc1ccc(Cl)c(C2NC(=O)c3cccc(NC(=O)c4cc(F)cc(C(F)(F)F)c4)c32)c1 (stereo not shown) [Compound I-485] | 10 to 100 µM |
| O=C(Nc1cccc2c1C(c1cc(-c3ccccc3)ccc1Cl)NC2=O)c1cc(F)cc(C(F)(F)F)c1 (stereo not shown) [Compound I-486] | 1 to 10 µM |
| O=C(Nc1cc(N2CC(C(F)F)C2)nc2c1C(c1cc(F)ccc1Cl)NC2=O)c1cc(F)cc(C(F)(F)F)c1 (stereo not shown) [Compound I-487] | ≤ 0.1 µM |
| O=C(Nc1cc(N2CC(F)C2)nc2c1C(c1cc(F)ccc1Cl)NC2=O)c1cc(F)cc(C(F)(F)F)c1 (stereo not shown) [Compound I-488] | ≤ 0.1 µM |
| Cn1cc(-c2ccc(Cl)c(C3NC(=O)c4cccc(NC(=O)c5cc(F)cc(C(F)(F)F)c5)c43)c2)cn1 (stereo not shown) [Compound I-489] | 10 to 100 µM |
| N#Cc1cc(NC(=O)c2cc(F)cc(C(F)(F)F)c2)c2c(c1)C(=O)NC2c1cc(F)ccc1Cl (stereo not shown) [Compound I-490] | ≤ 0.1 µM |
| O=C1NC(c2cc(F)ccc2Cl)c2c(NC(=O)N3CCCC(F)C3)cc(Br)cc21 (stereo not shown) [Compound I-491] | 10 to 100 µM |
| Cc1ccccc1C1NC(=O)c2cccc(NC3(c4cc(F)cc(C(F)(F)F)c4)COC3)c21 (stereo not shown) [Compound I-492] | 1 to 10 µM |
| O=C(O)c1cc(NC(=O)c2cc(F)cc(C(F)(F)F)c2)c2c(c1)C(=O)NC2c1cc(F)ccc1Cl (stereo not shown) [Compound I-494] | ≤ 0.1 µM |
| CC(C)(O)c1cc(NC(=O)c2cc(F)cc3cc[nH]c23)c2c(c1)C(=O)NC2c1cc(F)ccc1Cl (stereo not shown) [Compound I-495] | ≤ 0.1 µM |
| O=C(Nc1cc(-c2cnc(C(F)(F)F)s2)nc2c1C(c1cc(F)ccc1Cl)NC2=O)c1cc(F)cc(Cl)c1 (stereo not shown) [Compound I-496] | ≤ 0.1 µM |
| Cc1ccc(-c2cc(NC(=O)c3cc(F)cc(Cl)c3)c3c(n2)C(=O)NC3c2cc(F)ccc2Cl)cn1 (stereo not shown) [Compound I-497] | 0.1 to 0.5 µM |
| Cn1ccc(-c2cc(NC(=O)c3cc(F)cc(Cl)c3)c3c(n2)C(=O)NC3c2cc(F)ccc2Cl)cc1=O (stereo not shown) [Compound I-499] | 0.1 to 0.5 µM |
| COc1cc(C)c(C(=O)Nc2cccc3c2C(c2ccccc2C)NC3=O)cn1 (stereo not shown) [Compound I-501] | 10 to 100 µM |
| O=C(Nc1cc(-c2ccncc2F)nc2c1C(c1cc(F)ccc1Cl)NC2=O)c1cc(F)cc(Cl)c1 (stereo not shown) [Compound I-502] | ≤ 0.1 µM |
| Cc1cnccc1-c1cc(NC(=O)c2cc(F)cc(Cl)c2)c2c(n1)C(=O)NC2c1cc(F)ccc1Cl (stereo not shown) [Compound I-503] | ≤ 0.1 µM |
| Cc1ccccc1C1NC(=O)c2cccc(NC(=O)c3c[nH]c(=O)c(Br)c3C)c21 (stereo not shown) [Compound I-504] | 10 to 100 µM |
| COc1cnccc1-c1cc(NC(=O)c2cc(F)cc(Cl)c2)c2c(n1)C(=O)NC2c1cc(F)ccc1Cl (stereo not shown) [Compound I-505] | 0.1 to 0.5 µM |
| N#Cc1cnccc1-c1cc(NC(=O)c2cc(F)cc(Cl)c2)c2c(n1)C(=O)NC2c1cc(F)ccc1Cl (stereo not shown) [Compound I-506] | ≤ 0.1 µM |
